Holding throughout (format): cell-based
The test system of one experiment is Herpes virus of type I. The experiment is described as follows: Protection of Vero cells from Herpes virus of type I. As to conditions: for Number of cells: number of cells in 100 fields.
The test system of a further experiment is Influenza virus B. As to conditions: Influenza virus B; 72 hours at 33-34 C; ineffective when IN less than 1.0.
Experiment [1] concerns Chlamydia trachomatis D323. The experiment is described as follows: Protection of cell culture from Chlamydia trachomatis (immunofluorescence, cytoplasmatic inclusions). An excerpt: The antiviral activity of the claimed compounds were also all tested against the Chlemydia trachomatis. The effects of the claimed compounds on the Chlamydia trachomatis are charted in TABLE 4. A relative strain of Chlamydia trachomatis D323 was used to test the claimed compounds. The strain, derived from a patient with Chlamydia urethritis, comprised a morphology and a physiological activity characteristic of and representative of that type. An infection dose of Chlamydia having a concentration of 1/10^6 cells/ml was introduced into a cell culture. Immunofluorescence (MicroTrack Chlamydia trachomatis Direct Specimen Test) was conducted to determine the significance of the chlamydial cytoplasmatic inclusions (CPI). A CylaMonoScreen was conducted to obtain the chlamydia antigens. The monolayer state and the number of cells with CPI were compared to the control to determine the effects the claimed compounds have on the chlamydia. The number of unchanged cells in 100 visual fields were counted utilizing a special net on a microscopic eyepiece.

The next experiment relates to Influenza virus A. As to conditions: Influenza virus A; 48 hours at 33-34 C; ineffective when IN less than 1.0.

Marks after values point to notes of the source that are not given here.

On to “4-chlorine-6-hydroxi-5-aryl-5,9-dihydro-1H-pyrano[2,3d: 6,5-d′]dipyrimidine-2-8-dition [Iib]”, for which the “percentage of protection of cells from virus” value (shortened to “percentage … from virus”) is listed as 70% in the experiment with Herpes virus of type I (compound 10 mg/l), 90% in the experiment on Herpes virus of type I (compound 50 mg/l) and 100% with Herpes virus of type I (compound 100 mg/l). Besides, the results for the Number of cells in the experiment with Herpes virus of type I (compound 10 mg/l), in the experiment on Herpes virus of type I (compound 50 mg/l) and with Herpes virus of type I (compound 100 mg/l) were 8400, 10800 and 12000, respectively.
For `Nc1nc2c(ncn2COCCO)c(=O)[nH]1` [Acyclovir, reference compound], in the experiment on Herpes virus of type I (compound 10 mg/l), the “percentage … from virus” value is given as “(80%)****” and the Number of cells was 9600***.
In the case of `Nc1nc(=S)[nH]c2c1C(c1ccc([N+](=O)[O-])cc1)c1c(Cl)nc(=S)[nH]c1O2` (stereo not shown) [IV, 4-chlorine-6-amino-5-(4-dinytrophenyl)-5,9-dihydro-1H-pyrano[2,3-d: 6,5-d′]dipyrimidine-2,8-dition], the Index of neutralization in the experiment on Influenza virus B came to 1.5; with Influenza virus A, 2.0. In addition, the “percentage … from virus” value is listed as 50% in the experiment on Herpes virus of type I (compound 10 mg/l), 70% in the experiment on Herpes virus of type I (compound 50 mg/l) and 80% with Herpes virus of type I (compound 100 mg/l). The Number of cells in the experiment with Herpes virus of type I (compound 10 mg/l) came out at 6000; in the experiment on Herpes virus of type I (compound 50 mg/l), 8400; in the experiment on Herpes virus of type I (compound 100 mg/l), 9600. Further, the “Percentage of cells' defense from C. trachomatis” value (shortened to “Percentage of cells' defense”) came out at 50% in experiment [1] (compound 30 mg/l) and 80% in experiment [1] (compound 100 mg/l).
Consider `Oc1nc(=S)[nH]c2c1C(c1ccccc1)c1c(Cl)nc(=S)[nH]c1O2` (stereo not shown) [Ia, 4-chlorine-6-hydroxi-5-aryl-5,9-dihydro-1H-pyrano[2,3d: 6,5-d′]dipyrimidine-2,8-dition], for which the “percentage … from virus” value is given as 60% in the experiment on Herpes virus of type I (compound 10 mg/l), 80% in the experiment on Herpes virus of type I (compound 50 mg/l) and 90% in the experiment with Herpes virus of type I (compound 100 mg/l). In addition, the Number of cells came to 7200 in the experiment with Herpes virus of type I (compound 10 mg/l), 9600 in the experiment on Herpes virus of type I (compound 50 mg/l) and 10800 in the experiment on Herpes virus of type I (compound 100 mg/l).
In the case of `O=[N+]([O-])c1ccc(C2c3c(Cl)nc(=S)[nH]c3Oc3[nH]c(=S)nc(Cl)c32)cc1` [Iia, 4,6-dichlorine-5-(4-nitrophenyl)-5,9-dihydro-1H-pyrano[2,3-d: 6,5-d′]dipyrimidine-2,8-dition], the Index of neutralization with Influenza virus B and in the experiment with Influenza virus A was 1.5 in each case. Further, the figures for the “Percentage of cells' defense” value in experiment [1] (compound 30 mg/l) and in experiment [1] (compound 100 mg/l) were 70% and 90%, respectively.
Turning to `CNc1nc(=S)[nH]c2c1C(c1ccc([N+](=O)[O-])cc1)c1c(O)nc(=S)[nH]c1O2` (stereo not shown) [VIII, 4-methylamino-6-hydroxi-5-(4-nitrophenyl)-5,9-dihydro-1H-pyrano[2,3d: 6,5-d′]dipyrimidine-2,8-dition], the Index of neutralization with Influenza virus B was determined as 1.5; with Influenza virus A, 2.0. The figures for the “Percentage of cells' defense” value in experiment [1] (compound 30 mg/l) and in experiment [1] (compound 100 mg/l) were 70% and 90%, respectively.
Consider `O=[N+]([O-])c1ccc(C2c3c(O)nc(=S)[nH]c3Oc3[nH]c(=S)nc(O)c32)cc1` [XII], for which the “percentage … from virus” value with Herpes virus of type I (compound 10 mg/l) came to 10%; in the experiment on Herpes virus of type I (compound 50 mg/l), 30%; with Herpes virus of type I (compound 100 mg/l), 50%. In addition, the Number of cells with Herpes virus of type I (compound 10 mg/l) came out at 1200; in the experiment with Herpes virus of type I (compound 50 mg/l), 3600; with Herpes virus of type I (compound 100 mg/l) it was 6000. Besides, the “Percentage of cells' defense” value in experiment [1] (compound 30 mg/l) amounted to 40%; in experiment [1] (compound 100 mg/l) it was 60%.

These data come from US7557116B2, “Substance which exhibits antiviral and antibacterial activity and is based on derivatives of 2,8-dithioxo-1H-pyrano[2,3d 6,5-d′]dipyrimidyne and 10-aza-analogue thereof” (priority 2003, dated 2009).
